From patent publication US20130303535A1, “NOVEL BICYCLIC HETEROCYCLIC COMPOUND” (priority 2008, published 2013)
Structures can show the parent of a compound that is named as a salt.

molecular target: TTX resistant Na channel of human SNS-expressing cell (SNS) (Homo sapiens, UniProt Q9Y5Y9); test: cell-based; settings: CHO-K1, compound concentration 12.5 μM; read-out: SNS inhibitory rate (%)
Sequence (Q9Y5Y9 whole entry, looked up): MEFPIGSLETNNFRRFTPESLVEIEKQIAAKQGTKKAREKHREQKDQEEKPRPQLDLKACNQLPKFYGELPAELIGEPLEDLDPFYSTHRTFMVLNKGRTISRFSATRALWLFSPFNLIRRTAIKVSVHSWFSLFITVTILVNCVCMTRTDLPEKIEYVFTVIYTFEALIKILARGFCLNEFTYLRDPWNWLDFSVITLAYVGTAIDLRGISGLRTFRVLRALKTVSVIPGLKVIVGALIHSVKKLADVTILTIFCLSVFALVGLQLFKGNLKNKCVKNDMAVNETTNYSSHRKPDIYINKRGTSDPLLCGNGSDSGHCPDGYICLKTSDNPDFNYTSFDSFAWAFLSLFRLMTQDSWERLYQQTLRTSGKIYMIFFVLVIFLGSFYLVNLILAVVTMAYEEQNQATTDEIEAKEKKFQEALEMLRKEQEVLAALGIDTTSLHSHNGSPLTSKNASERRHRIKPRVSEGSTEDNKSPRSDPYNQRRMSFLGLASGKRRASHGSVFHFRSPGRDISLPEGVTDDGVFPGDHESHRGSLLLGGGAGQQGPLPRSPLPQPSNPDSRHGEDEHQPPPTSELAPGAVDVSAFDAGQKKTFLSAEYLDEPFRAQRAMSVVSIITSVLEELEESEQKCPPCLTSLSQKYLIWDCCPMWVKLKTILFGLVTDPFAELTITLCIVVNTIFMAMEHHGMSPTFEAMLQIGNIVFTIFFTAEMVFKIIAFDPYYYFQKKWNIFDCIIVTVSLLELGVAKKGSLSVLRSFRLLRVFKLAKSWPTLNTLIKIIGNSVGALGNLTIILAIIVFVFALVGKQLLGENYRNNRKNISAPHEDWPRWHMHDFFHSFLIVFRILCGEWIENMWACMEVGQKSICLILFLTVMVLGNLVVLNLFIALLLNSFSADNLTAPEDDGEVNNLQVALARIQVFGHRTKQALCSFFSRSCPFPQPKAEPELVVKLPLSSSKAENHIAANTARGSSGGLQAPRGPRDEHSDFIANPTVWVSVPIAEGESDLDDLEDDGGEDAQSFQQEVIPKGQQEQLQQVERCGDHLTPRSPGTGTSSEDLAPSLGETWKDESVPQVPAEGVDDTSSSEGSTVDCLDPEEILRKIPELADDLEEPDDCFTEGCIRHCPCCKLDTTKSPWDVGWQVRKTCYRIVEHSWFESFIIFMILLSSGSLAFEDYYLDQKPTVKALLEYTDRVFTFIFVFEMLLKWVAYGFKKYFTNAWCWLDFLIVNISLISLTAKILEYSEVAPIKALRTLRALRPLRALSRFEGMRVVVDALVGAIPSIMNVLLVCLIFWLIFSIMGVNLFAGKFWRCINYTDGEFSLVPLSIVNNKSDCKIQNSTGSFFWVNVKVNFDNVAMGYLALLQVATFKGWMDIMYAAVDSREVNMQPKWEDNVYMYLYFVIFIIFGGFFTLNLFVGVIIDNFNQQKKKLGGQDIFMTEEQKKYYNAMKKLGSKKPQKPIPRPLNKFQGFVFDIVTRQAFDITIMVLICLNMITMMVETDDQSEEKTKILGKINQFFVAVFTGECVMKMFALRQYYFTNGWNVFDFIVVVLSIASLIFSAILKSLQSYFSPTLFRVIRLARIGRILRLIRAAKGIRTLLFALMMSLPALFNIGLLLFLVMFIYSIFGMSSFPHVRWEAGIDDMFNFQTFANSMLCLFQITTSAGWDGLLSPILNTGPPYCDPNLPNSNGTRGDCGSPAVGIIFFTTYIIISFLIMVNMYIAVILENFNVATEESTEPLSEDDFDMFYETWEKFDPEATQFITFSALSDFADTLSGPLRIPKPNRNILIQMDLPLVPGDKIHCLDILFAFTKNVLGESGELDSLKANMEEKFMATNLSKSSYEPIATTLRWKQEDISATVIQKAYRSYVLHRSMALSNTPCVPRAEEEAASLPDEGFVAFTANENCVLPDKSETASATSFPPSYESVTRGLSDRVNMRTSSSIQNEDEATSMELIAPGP

Point of comparison: CCOCCn1c(CN[C@@H](C)C(N)=O)nc2ccc(Oc3ccc(C#N)cc3)cc21 [Example 45], inhibition at 12.5 µM 40.6%. Against it:
- CCOCCn1c(CNC(C)(C)C(N)=O)nc2ccc(Oc3cccc(Cl)c3)cc21 [Example 30] — lower, 31.5%
- CCOCCn1c(CN[C@@H](C)C(N)=O)nc2ccc(Oc3ccc(Cl)cc3)cc21 [Example 27] — higher, 78.2%
- C[C@H](NCc1nc2ccc(Oc3ccc(OC(F)(F)F)cc3)cc2n1CCO)C(N)=O [Example 134] — higher, 95.7%
- CCOCCn1c(CN[C@@H](C)C(N)=O)nc2ccc(Oc3cc(F)c(F)c(F)c3)cc21 [Example 44] — higher, 84.9%
- CCOCCn1c(CNCC(N)=O)nc2ccc(Oc3ccccc3)nc21 [Example 80, N^2-{[3-(2-ethoxyethyl)-5-phenoxy-3H-imidazo[4,5-b]pyridin-2-yl]methyl}glycinamide] — lower, 2.5%
- CCOCCn1c(CN[C@@H](C)C(N)=O)nc2ccc(-c3ccc(C(F)(F)F)cc3)cc21 [Example 146] — lower, 19.7%
- CCOCCn1c(CN[C@@H](C)C(N)=O)nc2c(Cl)cc(-c3ccc(F)cc3)cc21 [Example 112, N^2-{[4-chloro-1-(2-ethoxyethyl)-6-(4-fluorophenyl)-1H-benzimidazol-2-yl]methyl}-L-alaninamide] — lower, 0%
- C[C@H](NCc1nc2ccc(Oc3ccc(OC(F)(F)F)cc3)cc2n1CCCO)C(N)=O [Example 133] — higher, 91.7%
- CCOCCn1c(CN[C@@H](C)C(N)=O)nc2cc(Cl)c(-c3ccc(C(F)(F)F)cc3)cc21 [Example 182] — lower, 0%
- CC(C)OCCn1c(CN[C@@H](C)C(N)=O)nc2ccc(Oc3ccc(F)cc3)cc21 [Example 62] — higher, 93.8%
- CCOCCn1c(CN[C@@H](C)C(N)=O)nc2ccc(-c3cccc(F)c3F)cc21 [Example 171] — lower, 38.3%
- CCOCCn1c(CN[C@@H](C)C(N)=O)nc2ccc(-c3ccc(F)cc3Cl)cc21 [Example 155] — higher, 86.1%
- CCOCCn1c(CN[C@@H](C)C(N)=O)nc2ccc(-c3ccccc3C)cc21 [Example 153] — lower, 28.5%
- CCOCCn1c(CN[C@@H](C)C(N)=O)nc2ccc(Oc3cc(F)c(F)cc3F)cc21 [Example 55] — higher, 89.4%
- COCCCn1c(CNCC(N)=O)nc2ccc(Oc3ccccc3)cc21 [Example 23] — lower, 0.8%
- CCn1c(CN[C@@H](C)C(N)=O)nc2ccc(Oc3ccc(F)cc3)cc21 [Example 139] — higher, 96%
- Cc1ccc(Oc2ccc3nc(CN[C@@H](C)C(N)=O)n(CC(C)(C)O)c3c2)cc1 [Example 101] — higher, 85.2%
- COCCCn1c(CN[C@@H](C)C(N)=O)nc2ccc(Oc3ccc(OC(F)(F)F)cc3)cc21 [Example 127] — higher, 93.9%
- CCOCCn1c(CN[C@@H](C)C(N)=O)nc2cc(F)c(Oc3ccc(F)cc3)cc21 [Example 81, N^2-{[1-(2-ethoxyethyl)-5-fluoro-6-(4-fluorophenoxy)-1H-benzimidazol-2-yl]methyl}-L-alaninamide] — higher, 69.1%
- C[C@H](NCc1nc2ccc(Oc3ccc(OC(F)(F)F)cc3)cc2n1C[C@@H]1CCCO1)C(N)=O [Example 120] — higher, 92.4%
- CC(C)(NCc1nc2ccc(Oc3ccc(F)cc3)cc2n1C1CC1)C(N)=O [Example 136] — lower, 28.7%
- C[C@H](NCc1nc2ccc(Oc3ccc(F)cc3)cc2n1C[C@H]1CCCO1)C(N)=O [Example 51] — higher, 90.5%
- Cc1ccc(Oc2ccc3nc(CN[C@@H](C)C(N)=O)n(C[C@@H]4CCCO4)c3c2)cc1 [Example 119] — higher, 87.2%
- Cc1ccc(Oc2ccc3nc(CN[C@@H](C)C(N)=O)n(C4CCOCC4)c3c2)cc1 [Example 129] — higher, 90.3%
- C[C@H](NCc1nc2ccc(Oc3ccc(F)cc3F)cc2n1C[C@@H]1CCCO1)C(N)=O [Example 121] — higher, 94.3%
- CCOCCn1c(CNC(C)(C)C(N)=O)nc2ccc(-c3ccc(F)c(OC)c3)cc21 [Example 175] — lower, 5.9%
- CCOCCn1c(CNC(C)(C)C(N)=O)nc2ccc(-c3ccc(C)cc3C)cc21 [Example 160] — higher, 97%
- CCOCCn1c(CN[C@@H](C)C(N)=O)nc2ccc(Oc3ccc4c(c3)CCC4)cc21 [Example 95] — lower, 26.8%
- C[C@H](NCc1nc2ccc(Oc3ccc(F)cc3)cc2n1C1CCOCC1)C(N)=O [Example 6] — higher, 77.8%
- CCOCCn1c(CN[C@@H](C)C(N)=O)nc2ccc(Oc3ccc(F)cc3F)cc21 [Example 49] — higher, 94.8%
- CCOCCn1c(CN[C@@H](C)C(N)=O)nc2ccc(Oc3ccc(C(C)C)cc3)cc21 [Example 94] — higher, 63.9%
- CC(C)OCCn1c(CNCC(N)=O)nc2ccc(Oc3ccc(F)cc3)cc21 [Example 61] — lower, 26.1%
- CCn1c(CN[C@@H](C)C(N)=O)nc2ccc(Oc3ccc(C)cc3)cc21 [Example 96] — higher, 84.8%
- CCOCCn1c(CNCC(N)=O)nc2ccc(-c3ccc(F)cc3)cc21 [Example 67] — lower, 30.8%
- CCOCCn1c(CN[C@@H](C)C(N)=O)nc2ccc(Oc3ccccc3F)cc21 [Example 52] — higher, 89.7%
- Cc1ccc(Oc2ccc3nc(CNC(C)(C)C(N)=O)n(C4CCOCC4)c3c2)cc1 [Example 140] — higher, 97.5%
- CC(C)n1c(CNCC(N)=O)nc2ccc(Oc3ccccc3)cc21 [Example 10] — lower, 16.3%
- CCOCCn1c(CN[C@@H](C)C(N)=O)nc2ccc(-c3ccc(C)c(C)c3)cc21 [Example 161] — higher, 76.2%
- CCOCCn1c(CN[C@@H](C)C(N)=O)nc2cc(-c3ccc(OC)cc3)ccc21 [Example 192, N^2-{[1-(2-ethoxyethyl)-5-(4-methoxyphenyl)-1H-benzimidazol-2-yl]methyl}-L-alaninamide trifluoroacetate] — lower, 11.9%
- C[C@H](NCc1nc2ccc(Oc3ccc(F)cc3)cc2n1C1CCC1)C(N)=O [Example 17] — higher, 89.3%
- CCOCCn1c(CN[C@H](C(N)=O)C(C)C)nc2ccc(Oc3ccccc3)cc21 [Example 38] — higher, 48.8%
- CCOCCn1c(CN[C@@H](C)C(N)=O)nc2cc(F)c(-c3ccc(C)c(F)c3)cc21 [Example 189] — higher, 97.7%
- CCOCCn1c(CN[C@@H](C)C(N)=O)nc2cc(Cl)c(-c3ccc(F)cc3)cc21 [Example 92, N^2-{[5-chloro-1-(2-ethoxyethyl)-6-(4-fluorophenyl)-1H-benzimidazol-2-yl]methyl}-L-alaninamide] — higher, 66.7%
- CCOCCn1c(CN[C@@H](C)C(N)=O)nc2ccc(-c3ccc(F)cc3F)cc21 [Example 147] — lower, 23.5%
- C[C@H](NCc1nc2ccc(Oc3ccc(F)c(F)c3)cc2n1C[C@H]1CCCO1)C(N)=O [Example 124] — higher, 87.8%
- CCOCCn1c(CNC(C)(C)C(N)=O)nc2ccc(-c3ccc(F)cc3Cl)cc21 [Example 156] — higher, 71.2%
- CCOCCn1c(CN[C@@H](C)C(N)=O)nc2ccc(Oc3cccc(F)c3)cc21 [Example 53] — higher, 94%
- C[C@H](NCc1nc2ccc(Oc3ccccc3)cc2n1C[C@H]1CCCO1)C(N)=O [Example 20] — lower, 7.2%
- CCn1c(CN[C@@H](C)C(N)=O)nc2cc(F)c(-c3ccc(F)cc3)cc21 [Example 111, N^2-{[1-ethyl-5-fluoro-6-(4-fluorophenyl)-1H-benzimidazol-2-yl]methyl}-L-alaninamide] — higher, 88.4%
- COCCn1c(CNCC(N)=O)nc2ccc(Oc3ccc(F)cc3)cc21 [Example 63] — lower, 9.2%
- COCCn1c(CN[C@@H](C)C(N)=O)nc2ccc(Oc3ccc(F)cc3)cc21 [Example 60] — higher, 75.7%
- CCn1c(CNC(C)(C)C(N)=O)nc2ccc(-c3ccc(F)cc3)cc21 [Example 154] — lower, 11.2%
- CCOCCn1c(CN[C@@H](C)C(N)=O)nc2ccc(Oc3ccc(C(F)(F)F)cc3)cc21 [Example 46] — higher, 95.5%
- CCOCCn1c(CN2CCC[C@H]2C(N)=O)nc2ccc(Oc3ccc(F)cc3)cc21 [Example 15] — higher, 95.7%
- CCOCCn1c(CN[C@@H](C)C(=O)NCC(C)(C)O)nc2ccc(Oc3ccc(F)cc3)cc21 [Example 87, N^2-{[1-(2-ethoxyethyl)-6-(4-fluorophenoxy)-1H-benzimidazol-2-yl]methyl}-N-(2-hydroxy-2-methylpropyl)-L-alaninamide] — higher, 90.1%
- CCn1c(CNC(C)(C)C(N)=O)nc2ccc(Oc3ccc(C)cc3)cc21 [Example 135] — higher, 57.8%
- C[C@H](NCc1nc2ccc(Oc3ccccc3)cc2n1C1CCCC1)C(N)=O [Example 26] — lower, 26.6%
- CCOCCn1c(CN[C@@H](C)C(N)=O)nc2ccc(Oc3ccc(C)cc3)cc21 [Example 42] — higher, 76.7%
- C[C@H](NCc1nc2ccc(Oc3ccc(F)cc3)cc2n1C1CC1)C(N)=O [Example 7] — higher, 83.1%
- CCOCCn1c(CNCC(N)=O)nc2ccc(-c3ccccc3)cc21 [Example 66, N^2-{[1-(2-ethoxyethyl)-6-phenyl-1H-benzimidazol-2-yl]methyl}glycinamide] — lower, 16.8%
- CCOCCn1c(CN[C@@H](C)C(N)=O)nc2cc(F)c(-c3ccc(F)cc3)cc21 [Example 109, N^2-{[1-(2-ethoxyethyl)-5-fluoro-6-(4-fluorophenyl)-1H-benzimidazol-2-yl]methyl}-L-alaninamide] — higher, 89.3%
- CCOCCn1c(CN[C@H](C(N)=O)C(C)C)nc2ccc(Oc3ccc(F)cc3)cc21 [Example 4, N^2-{[1-(2-ethoxyethyl)-6-(4-fluorophenoxy)-1H-benzimidazol-2-yl]methyl}-L-valinamide] — higher, 66.8%
- CCOCCn1c(CN[C@@H](C)C(N)=O)nc2ccc(Oc3cccc(Cl)c3)cc21 [Example 29] — lower, 27%
- CCOCCn1c(CN[C@@H](C)C(=O)N2CCOCC2)nc2ccc(Oc3ccc(F)cc3)cc21 [Example 90] — higher, 96.1%
- CCOCCn1c(CNC(C)(C)C(N)=O)nc2ccc(OCc3ccccc3)cc21 [Example 77, N^2-{[6-(benzyloxy)-1-(2-ethoxyethyl)-1H-benzimidazol-2-yl]methyl}-2-methylalaninamide] — lower, 16%
